Assay results from patent US8721963B2, “Cold sterilization of tissue engineering scaffolds with compressed carbon dioxide” (University of South Carolina, priority 2010, dated 2014).

Assays:
[1] = system: Staphylococcus aureus (S. aureus) (ATCC 25923); assay: Inactivation of S. aureus embedded in model hydrogel by SC-CO2 treatment (plate counting); type: cell-based; conditions: 27.6 MPa, 40° C.
Experimental: Staphylococcus aureus (S. aureus) (ATCC 25923) and Escherichia coli (E. coli) (ATCC 15597) were used as test microorganisms embedded in the hydrogel to investigate the bacteriocidal activity of pure SC-CO2 or SC-CO2+H2O2. Suspensions of S. aureus and E. coli were prepared for inoculation of the hydrogel. Cultures of these bacteria were preserved on DifcoTM […] soy agar and stored in Petri dishes inside of a refrigerator at 4° C. A fresh colony was transferred aseptically from the agar culture plate into a culture tube containing 30 g/L of sterile tryptone soy broth (TSB). The bacteria were grown to a logarithmic phase in the TSB at 35° C. for 24 hours (Cappuccino and Sherman 2001). A fresh bacterial culture was prepared before every experiment to ensure cell viability. Both S. aureus and E. coli bacteria suspensions were diluted after incubation to a concentration of approximately 107 colony forming units per milliliter (cfu/mL). A Petroff Hausser counting chamber was used to quantify the cfu count in the diluted samples. Also, a standard plate counting technique was followed to verify the original number of cfu. The final number of S. aureus or E. coli generally ranged from 7.6×106 to 2.3×10^8 cfu/mL. The hydrogel was hydrated with the diluted bacteria suspension of either S. aureus or E. coli. For CO2 sterilization experiments, the model gel was hydrated with the diluted bacteria suspension. Typically, 0.1 g of dry powder (absorption capacity of 200 mL H2O/g) was hydrated with steam autoclaved DI water. The hydrated powder was left overnight inside of a refrigerator at 4° C. About 3 g of the completely incorporated hydrated gel were then transferred into a polyallomer centrifuge tube for the CO2 treatment, to be described subsequently. […] A pulverization procedure was followed to quantify the amount of bacteria in the inoculated hydrogel. Bacteria were dislodged from the gel by pulverizing in a Stomacher 400 Circulator (Seward Ltd., United Kingdom) for 10 minutes at 230 revolutions per minute (rpm). The degree of killing was quantified with a standard plate counting technique. The log reduction of bacteria (S. aureus or E. coli) was calculated with equation (1), [formula] For use as negative controls, a quantified amount of inoculated hydrogel (with either S. aureus or E. coli) in a polyallomer centrifuge tube was immersed in a PolyScience laboratory temperature bath (model 9105) at 40° C. for 4 hours. The inoculated hydrogel was removed from the bath, pulverized in the Stomacher 400, and the degree of killing was quantified using the standard plate counting technique.

[2] = system: Escherichia coli (E. coli) (ATCC 15597); assay: Inactivation of E. coli embedded in model hydrogel by SC-CO2 treatment (plate counting); type: cell-based; conditions: 27.6 MPa, 40° C., 4 hours
Experimental: Staphylococcus aureus (S. aureus) (ATCC 25923) and Escherichia coli (E. coli) (ATCC 15597) were used as test microorganisms embedded in the hydrogel to investigate the bacteriocidal activity of pure SC-CO2 or SC-CO2+H2O2. Suspensions of S. aureus and E. coli were prepared for inoculation of the hydrogel. Cultures of these bacteria were preserved on DifcoTM […] soy agar and stored in Petri dishes inside of a refrigerator at 4° C. A fresh colony was transferred aseptically from the agar culture plate into a culture tube containing 30 g/L of sterile tryptone soy broth (TSB). The bacteria were grown to a logarithmic phase in the TSB at 35° C. for 24 hours (Cappuccino and Sherman 2001). A fresh bacterial culture was prepared before every experiment to ensure cell viability. […] A Petroff Hausser counting chamber was used to quantify the cfu count in the diluted samples. […] A pulverization procedure was followed to quantify the amount of bacteria in the inoculated hydrogel. […] The degree of killing was quantified with a standard plate counting technique. The log reduction of bacteria (S. aureus or E. coli) was calculated with equation (1), [formula] For use as negative controls, a quantified amount of inoculated hydrogel (with either S. aureus or E. coli) in a polyallomer centrifuge tube was immersed in a PolyScience laboratory temperature bath (model 9105) at 40° C. for 4 hours. […]

[3] = system: B. pumilus spores; conditions: 40° C., 27.58 MPa, 4 hours; cited from earlier work
[4] = system: B. atrophaeus spores; conditions: 40° C., 27.58 MPa, 4 hours; cited from earlier work
[5] = system: G. stearothermophilus spores; conditions: 40° C., 27.58 MPa, 4 hours; cited from earlier work

O=C=O [pure SC-CO2, carbon dioxide]
killing of S. aureus ([1]; in hydrogel, 4 hours): Complete killing
D-value (D40) of S. aureus ([1]; in hydrogel): 4.6 min
time required to obtain 6-log reduction of S. aureus ([1]; in hydrogel): about 27.4 minutes
log-reduction of S. aureus ([1]; in hydrogel, 10 minutes): 1.94 log
log-reduction of S. aureus ([1]; in hydrogel, 15 minutes): 3.42 log
log-reduction of S. aureus ([1]; in hydrogel, 20 minutes): 4.13 log
killing of S. aureus ([1]; in hydrogel, 30 minutes): complete kill
killing of S. aureus ([1]; in hydrogel, 60 minutes): complete kill
average log-reduction of S. aureus ([1]; in poly(acrylic acid-co-acrylamide) hydrogel, 4 hours): 7.72 log
killing of E. coli ([2]; in hydrogel): Complete killing
average log-reduction of E. coli ([2]; in poly(acrylic acid-co-acrylamide) hydrogel): 7.93 log
log reduction of B. pumilus spores [3]: 6 log
log reduction of B. atrophaeus spores [4]: 6 log
log reduction of G. stearothermophilus spores [5]: 6 log
